# Assay results reported in patent US20240285728A1, “TARGETED PROTEIN DELIVERY TO MAMMALIAN EMBRYOS AND THERAPEUTIC APPLICATIONS USING EXOSOMES” (University of Maryland, Baltimore, priority 2021, published 2024).
# Key:
# [1] = tested on: Fgf2 promoter in yolk sac endoderm PYS2 cell line; experiment: Fgf2 promoter luciferase reporter activity under high glucose; assay type: cell-based; conditions: suppressed by high glucose (25 mM glucose), PYS2 cells
# Method: (§1) Cell culture and transfection. The C17.2 mouse neural stem cell line from the European Collection of Cell Culture (Salisbury, UK) and the yolk sac endoderm PYS2 cell line (ATCC® CRL2745™) were maintained in DMEM (5 mM glucose) supplemented with 10% FBS, 100 U/ml penicillin, and […] streptomycin at 37° C. in a humidified atmosphere of 5% CO2. Mouse recombinant FGF2 (#3139-FB; R&D Systems, Minneapolis, MN) was used at a final concentration of 10 ng/ml. Lipofectamine 2000 (Invitrogen, Carlsbad, CA) was used according to the manufacturer's protocol for transfection of siFGF2 and control siRNA (Invitrogen, Carlsbad, CA) into the cells. After seeding for 12 h, cells were transfected with recombinant FGF2 and cultured in 1% FBS for 8 h, after which cells were cultured in 10% FBS and collected after 48 h for analysis.
# neuroepithelial cells = conditions: mouse, in vivo
# Method: (§3) Mouse models of diabetic embryopathy. The mouse model of diabetic embryopathy was described previously [4,22,36,45,46]. Briefly, ten-week old female mice were intravenously injected daily with 75 mg/kg STZ over two days to induce diabetes. Diabetes was defined as 12 hours fasting blood glucose level of ≥250 mg/dL. Male and female mice were paired at 3:00 PM, and day 0.5 (E0.5) of pregnancy was established by the presence of the vaginal plug at 8:00 AM the next morning. Female mice injected with vehicle served as the nondiabetic controls. On E7.5, E8.5, E9.5 or E10.5 mice were euthanized and conceptuses were dissected out of the uteri for biochemical and molecular analysis.
# (§4) Immunoblotting. Immunoblotting was performed as described by Yang at el [4]. Lysis buffer (Cell Signaling Technology, Danvers, MA) containing a protease inhibitor cocktail (Sigma, St Louis, MO) was used to extract protein. Equal amounts of protein and Precision Plus Protein Standards (Bio-Rad, Hercules, CA) were resolved by SDS-PAGE and transferred onto Immunobilon-P membranes (Millipore, Billerica, MA). […] Signals were detected using the SuperSignal West Femto Maximum Sensitivity Substrate kit (Thermo Fisher Scientific, Waltham, MA). […]
# [2] = mouse, in vivo
# Method: Briefly, ten-week old female mice were intravenously injected daily with 75 mg/kg STZ over two days to induce diabetes. Diabetes was defined as 12 hours fasting blood glucose level of ≥250 mg/dL. Male and female mice were paired at 3:00 PM, and day 0.5 (E0.5) of pregnancy was established by the presence of the vaginal plug at 8:00 AM the next morning. Female mice injected with vehicle served as the nondiabetic controls. On E7.5, E8.5, E9.5 or E10.5 mice were euthanized and conceptuses were dissected out of the uteri for biochemical and molecular analysis. The exosome inhibitor GW4869 (Sigma, St, Louis, MO) was injected daily to nondiabetic pregnant dams from E7.0 to E8.0. NTDs were examined at E10.5.
# [3] = tested on: exosome production in the developing embryos; experiment: Exosome profile, exosome numbers and CD63 expression in E8.5 embryos after GW4869 injections; assay type: in vivo, mouse
# Method: Mouse models of diabetic embryopathy. […] NTDs were examined at E10.5.
# Exosome extraction and labelling. Cells and debris were removed from cell culture media via centrifugation at 2000×g for 30 minutes at 4° C. Supernatants containing the cell-free culture media were transferred to a new tube without disturbing the pellet. Total Exosome Isolation (#4478359, Invitrogen, Carlsbad, CA) at 0.5 volume of the collected supernatants was added to each tube. The cell culture media/reagent mixture was mixed well via vortex and pipetting up and down until it became a homogenous solution, and then was incubated at 4° C. overnight. After incubation, the samples were centrifuged at 10,000×g for 1 hour at 4° C. and the supernatants were discarded. Exosomes were contained in the pellet at the bottom of the tube (not visible in most cases). The pellet was re-suspended in 1 ml of 1×PBS, and NanoSight (#NS300, Malvern Panalytical) was used to measure the exosomes. The presence of exosomes was confirmed by Western blot using the exosomal marker CD63 (Santa Cruz Biotechnology, Dallas, TX). Exosomes were suspended in 1 ml Diluent C (Sigma, St Louis, MO) and labeled by incubating with PKH67 fluorescent dye (Sigma, St Louis, MO) for 5 min in the dark at room temperature. […]
# [4] = tested on: embryos of nondiabetic dams; conditions: mouse, in vivo
# Method: Mouse models of diabetic embryopathy. […] Briefly, ten-week old female mice were intravenously injected daily with 75 mg/kg STZ over two days to induce diabetes. Diabetes was defined as 12 hours fasting blood glucose level of ≥250 mg/dL. Male and female mice were paired at 3:00 PM, and day 0.5 (E0.5) of pregnancy was established by the presence of the vaginal plug at 8:00 AM the next morning. Female mice injected with vehicle served as the nondiabetic controls. On E7.5, E8.5, E9.5 or E10.5 mice were euthanized and conceptuses were dissected out of the uteri for biochemical and molecular analysis. The exosome inhibitor GW4869 (Sigma, St, Louis, MO) was injected daily to nondiabetic pregnant dams from E7.0 to E8.0. NTDs were examined at E10.5.
# Statistical analyses. Data were presented as means±standard errors (SE). In animal studies, experiments were repeated at least three times, and embryonic samples from each replicate were from different dams. Statistical differences were determined by one-way analysis of variance (ANOVA) using the SigmaPlot 12.5 (SigmaStat, San Jose, CA). In one-way ANOVA analysis, Tukey test was used to estimate the significance of the results (P<0.05). The Chi square test and Fisher Exact test were used to estimate the significance of NTD incidence.
# [5] = tested on: (p)-PERK, (p)-IRE1α, (p)-eIF2α and CHOP; conditions: mouse, in vivo
# Method: as §3, §4
# Survivin promoter = experiment: Luciferase reporter activity driven by the Survivin promoter; assay type: cell-based
# Method: as §1
# Survivin = Survivin mRNA and protein expression in normal and high glucose culture; assay type: cell-based; conditions: normal glucose 5 mM / high glucose 25 mM culture
# Method: as §1
# Real-time PCR (RT-PCR). mRNA was isolated from embryos using the RNeasy Mini kit (Qiagen, Hilden, Germany), and then reversely transcribed using the high-capacity cDNA archive kit (Applied Biosystem, Grand Island, NY). Real time-PCR for Fgf2, Fgfr, Bmp4, Vegfr2, mVegfr1, Calnexin, GRP94, PDIA, BiP, IRE1α, CHOP, Survivin and β-actin were performed using the Maxima SYBR Green/ROX qPCR Master Mix assay (Thermo Fisher Scientific, Waltham, MA) in the Step One Plus system (Applied Biosystem, Grand Island, NY).
# yolk sac cell line = experiment: Exosome number and Survivin protein in exosomes of a yolk sac cell line; assay type: cell-based
# Method: as §1
# (§2) Exosome extraction and labelling. Cells and debris were removed from cell culture media via centrifugation at 2000×g for 30 minutes at 4° C. Supernatants containing the cell-free culture media were transferred to a new tube without disturbing the pellet. Total Exosome Isolation (#4478359, Invitrogen, Carlsbad, CA) at 0.5 volume of the collected supernatants was added to each tube. The cell culture media/reagent mixture was mixed well via vortex and pipetting up and down until it became a homogenous solution, and then was incubated at 4° C. overnight. […]
# [6] = tested on: isolated E8 Flk-1^+ progenitors; experiment: Survivin protein in exosomes of isolated E8 Flk-1+ progenitors; assay type: cell-based, mouse; conditions: high glucose
# Method: Isolation of Flk-1+ endothelial progenitor cells. Flk-1^+ progenitor cells were isolated from the E8 yolk sac. Yolk sacs were minced in phosphate-buffered saline PBS (Thermo Fisher Scientific, Waltham, MA), digested with 1 mg/ml of collagenase type I (Sigma, St Louis, MO) and incubated on an orbital shaker at 37° C. for 30-45 min. Following the collagenase treatment, cells were washed twice with growth medium (EBM-2, fetal bovine serum (10%), hFGF-basic (0.5 ml), hydrocortisone (0.2 ml), VEGF (0.5 ml), IGF-1 (0.5 ml), ascorbic acid (0.5 ml), hEGF (0.5 ml), GA-100 (0.5 ml)) before being plated. Cells were trypsinized (Lonza, Walkersville, MD) and sorted for Flk-1 with MACS microbeads (Miltenyi Biotec, Bergisch Gladbach, Germany) as per the kit instructions. The Flk-1^+ progenitor cells were collected and cultured in growth medium as mentioned above.
# as §2, with “tube.” for “tube. The cell culture media/reagent mixture was mixed well via vortex and pipetting up and down until it became a homogenous solution, and then was incubated at 4° C. overnight.”
compound,measurement,setting,value
O=C(O)C(Cc1c[nH]c2ccccc12)N1C(=O)c2ccccc2C1=O (stereo not drawn) [RG108],Fgf2 promoter-driven luciferase activity,[1],restored
O=C(/C=C/c1ccc(/C=C/C(=O)Nc2ccc(C3=NCCN3)cc2)cc1)Nc1ccc(C2=NCCN2)cc1 [GW4869],neuroepithelial cell apoptosis,neuroepithelial cells,triggered
same,detection in the embryo,[2],reached the embryo
same,exosome production in the developing embryos,[3],inhibited
same,NTD Embryos,[4],7
same,NTD induction,[4],mimicked the teratogenic effect of maternal diabetes
same,NTD rate,[4],7.29%
same,ER stress in neurulation stage embryos,[5],triggered
"FGF2: recombinant fibroblast growth factor 2, used at 10 ng/ml",luciferase reporter activity driven by the Survivin promoter,Survivin promoter,stimulated
same,Survivin mRNA and protein expression,Survivin,normalized
same,Survivin in exosomal cargo,yolk sac cell line,rescued
same,Survivin expression in exosomes,[6],abolished this suppression
